Data: ChEMBL document CHEMBL1146187, “Synthesis, molecular modeling studies, and selective inhibitory activity against monoamine oxidase of N,N'-bis[2-oxo-2H-benzopyran]-3-carboxamides” (Bioorg Med Chem Lett, 2006)
pKi: −log10 of the molar value.

Tests used:
[1] = target: T1, Amine oxidase [flavin-containing] A (Bos taurus, UniProt P21398); assay: Inhibition of bovine brain mitochondrial MAOA
T1 sequence (P21398 whole entry): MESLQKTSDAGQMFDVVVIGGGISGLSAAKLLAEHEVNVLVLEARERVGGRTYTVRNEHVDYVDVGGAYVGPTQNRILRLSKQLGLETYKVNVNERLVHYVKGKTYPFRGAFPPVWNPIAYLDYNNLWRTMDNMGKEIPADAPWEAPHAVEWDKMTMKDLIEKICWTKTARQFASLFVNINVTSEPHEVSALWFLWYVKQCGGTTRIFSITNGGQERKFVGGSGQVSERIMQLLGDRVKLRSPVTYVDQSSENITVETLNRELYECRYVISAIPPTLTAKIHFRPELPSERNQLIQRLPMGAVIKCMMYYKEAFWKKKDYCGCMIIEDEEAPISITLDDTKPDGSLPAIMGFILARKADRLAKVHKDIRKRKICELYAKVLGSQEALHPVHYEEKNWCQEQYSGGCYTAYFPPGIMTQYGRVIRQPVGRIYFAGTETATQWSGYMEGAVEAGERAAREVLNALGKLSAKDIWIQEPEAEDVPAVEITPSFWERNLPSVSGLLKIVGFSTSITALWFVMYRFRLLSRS

[2] = target: T2, Amine oxidase [flavin-containing] B (Bos taurus, UniProt P56560); assay: Inhibition of bovine brain mitochondrial MAOB
T2 sequence (P56560 whole entry): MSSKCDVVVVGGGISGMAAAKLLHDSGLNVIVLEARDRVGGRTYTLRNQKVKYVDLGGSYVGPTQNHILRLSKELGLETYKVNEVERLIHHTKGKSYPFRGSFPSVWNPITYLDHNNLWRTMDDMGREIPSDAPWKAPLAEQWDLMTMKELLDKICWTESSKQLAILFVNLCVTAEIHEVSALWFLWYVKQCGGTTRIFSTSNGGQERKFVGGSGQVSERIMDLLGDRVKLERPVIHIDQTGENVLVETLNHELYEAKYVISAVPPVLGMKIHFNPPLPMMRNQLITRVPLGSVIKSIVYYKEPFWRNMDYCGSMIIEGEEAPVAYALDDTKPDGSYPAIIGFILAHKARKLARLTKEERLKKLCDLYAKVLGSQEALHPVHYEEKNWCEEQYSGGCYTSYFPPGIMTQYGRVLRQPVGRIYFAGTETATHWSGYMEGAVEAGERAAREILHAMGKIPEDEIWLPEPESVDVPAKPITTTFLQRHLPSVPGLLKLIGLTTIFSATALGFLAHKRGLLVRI

Row | Compound | pKi [1] | pKi [2]
1 | O=C(NCCCCNC(=O)c1cc2ccccc2oc1=O)c1cc2ccccc2oc1=O | 9.00 | 6.00
2 | O=C(N[C@H]1CCCC[C@@H]1NC(=O)c1cc2ccccc2oc1=O)c1cc2ccccc2oc1=O | 6.74 | 5.85
3 | O=C(NCCCCCCNC(=O)c1cc2ccccc2oc1=O)c1cc2ccccc2oc1=O | 8.40 | 5.74
4 | COc1ccc2cc(C(=O)NCCCCNC(=O)c3cc4ccc(OC)cc4oc3=O)c(=O)oc2c1 | 6.77 | 5.85
5 | O=C(NCCNC(=O)c1cc2ccccc2oc1=O)c1cc2ccccc2oc1=O | 7.48 | 5.20

Results, then the molecule that gave them:

Row | pKi [1] | pKi [2] | Compound
6 | 5.62 | 5.76 | O=C(Nc1ccc(NC(=O)c2cc3ccccc3oc2=O)cc1)c1cc2ccccc2oc1=O
7 | 7.79 | 5.52 | O=C(Nc1ccccc1NC(=O)c1cc2ccccc2oc1=O)c1cc2ccccc2oc1=O
